We go through ten substances from US12031986B2, “Polypeptide for targeting recognition of immune cells and application thereof” (KEYANGLE LIFE TECHNOLOGY CO., LTD., priority 2019, dated 2024).

This test deals with mouse peritoneal macrophages. Kind of test: In vivo fluorescent labeling of macrophages in a mouse abdominal cavity. The note with it: for in vivo labeling / recognition of mouse peritoneal macrophages by the fluorescent probe: probe injected into abdominal cavity, cells extracted after 4 hours, fluorescence microscope. As to the method: Dilute 300 μL of 50 μM AK9 fluorescent probe solution with serum-free DMEM incomplete medium to obtain 1 mL of solution, then inject into the abdominal cavities of 5-8 week old Kunming mice. After 4 hours, inject 5 mL of 1×PBS, and massage. After 10 minutes, sacrifice the mice by cervical vertebra dislocation. Cut the abdominal cavity skin of the mice, pierce the abdominal wall muscle by syringe, and extract the fluid in the abdominal cavity of the mice. Centrifuge the extracted peritoneal fluid at 1000 rpm for 5 min, wash twice with 1×PBS. Double-stain an appropriate number of cells with Alexa Fluor 488 anti-mouse F4/80 antibody (Biolegend). Add the stained cells to a 96-well plate and stain with a nuclear dye Nucblue (Invitrogen). Observe under EVOS FL Auto fluorescence microscope (Life Technologies, 20×, light source 50%, exposure 200 ms, gain 10) after the suspended cells were settled down at the bottom of the plate.
Table 1 lists probes, which contain the polypeptide fragments from the C-terminal fragments of Triokinases/FMN cyclases of different species and were prepared by a similar process as described in Examples 1 and 2, and in vivo imaging results of mouse peritoneal macrophages using these probes.

Entries after “also recorded” stand apart in the source; their conditions may differ. No end group written: not given here. K(rhodamine) = not defined here; code X = not defined here

Take “AAILRAILEVLQS-Y (AAILRAILEVLQSY; also: C-terminal Y: reporter or Cys/Lys + reporter (rhodamine or FITC), not given here; listed as Homo sapiens) [AK14, Y = reporter or cysteine/lysine + reporter]”: the “in vivo labeling / recognition of mouse peritoneal macrophages by the fluorescent probe” value (shortened to “in vivo labeling / recognition”) is on record as “can effectively recognize macrophages in vivo; also recorded: can be labeled”.

Take “AILEVLQS-Y (AILEVLQS-{K(rhodamine)}; reading uncertain) [AK9, Human Triokinase/FMN cyclase C-terminal fragment; Y is lysine + rhodamine fluorescent labeling group on the lysine side chain]”: the “in vivo labeling / recognition” value was “can effectively recognize macrophages in vivo”. Besides, the “labeling on the same cells, probe and F4/80 antibody” value (in vivo probe labeling, then F4/80 antibody double-stain of extracted peritoneal cells) is on record as “labeled on the same cells”.

As for “AVLEVLQG-Y (AVLEVLQGY; also: reporter type not given here) [Hx-AVGK9, Y = reporter or cysteine/lysine + reporter]”, the “in vivo labeling / recognition” value is given as “can be labeled”.

As to “ILRAILEVLQS-Y (ILRAILEVLQSY; also: reporter type not given here; listed as Homo sapiens) [IK12, Y = reporter or cysteine/lysine + reporter]”, the “in vivo labeling / recognition” value is reported as “can effectively recognize macrophages in vivo; also recorded: can be labeled”.

With “LQPDPGAVAAAAVLRAVLEGLQG-Y (LQPDPGAVAAAAVLRAVLEGLQGY; also: reporter type not given here; listed as Gallus gallus) [LK24, Y = reporter or cysteine/lysine + reporter]”, the “in vivo labeling / recognition” value is given as “can effectively recognize macrophages in vivo; also recorded: can also be labeled”.

For the substance “LQPDPSAVAAAAVLRAVLEVLQG-Y (LQPDPSAVAAAAVLRAVLEVLQGY; also: reporter type not given here) [Cx-LK24, Y = reporter or cysteine/lysine + reporter]”, the “in vivo labeling / recognition” value is “can be labeled”.

As to “LRAILEVLQS-Y (LRAILEVLQSY; also: reporter type not given here; listed as Homo sapiens) [LK11, Y = reporter or cysteine/lysine + reporter]”, the “in vivo labeling / recognition” value was “can effectively recognize macrophages in vivo; also recorded: can be labeled”.

Turning to “PGAVAAAAILRAILEVLQS-Y (PGAVAAAAILRAILEVLQSY; also: reporter type not given here; listed as Homo sapiens) [PK20, Y = reporter or cysteine/lysine + reporter]”, the “in vivo labeling / recognition” value is “can effectively recognize macrophages in vivo; also recorded: can be labeled”.

For the substance “VLRAVLEVLQG-Y (VLRAVLEVLQGY; also: reporter type not given here) [Hx-VVGK12, Y = reporter or cysteine/lysine + reporter]”, the “in vivo labeling / recognition” value was “can be labeled”.

On to “X-DQPDPGAVAAAAIFRAILEVLQTKAA ({code X}-DQPDPGAVAAAAIFRAILEVLQTKAA; reading uncertain; also: reporter type not given here, printed as X-DQPDPGAVAAAAIFRAILEVLQTKAA; listed as Rattus norvegicus) [r-KA27, X = reporter or cysteine/lysine + reporter]”, for which the “in vivo labeling / recognition” value is recorded as “can effectively recognize macrophages in vivo; also recorded: can be labeled”.
